Structures are written as SMILES.

For this test, the target named is human NaV 1.8 channels stably expressed in HEK 293 cells (Homo sapiens (Human), UniProt Q9Y5Y9). In words: Nav1.8 Qube automated patch-clamp assay. It counts as cell-based. Conditions: human NaV1.8 in HEK 293 cells, whole-cell voltage clamp, room temperature; read-out: IC50 values (nM) for Examples in the Nav1.8 Qube Assay. In outline: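 Whole-cell voltage clamp at room temperature on HEK293 cells; from −90 mV, a 10 s 1 Hz train of 20 ms pulses to 10 mV (repolarising to −67 mV) was applied. Peak currents at pulses 1 and 10 gave resting- and inactivated-state inhibition; IC50 fitted by Hill equation. Internal CsF/CsCl buffer.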
human NaV 1.8 channels stably expressed in HEK 293 cells, sequence (Q9Y5Y9 whole entry): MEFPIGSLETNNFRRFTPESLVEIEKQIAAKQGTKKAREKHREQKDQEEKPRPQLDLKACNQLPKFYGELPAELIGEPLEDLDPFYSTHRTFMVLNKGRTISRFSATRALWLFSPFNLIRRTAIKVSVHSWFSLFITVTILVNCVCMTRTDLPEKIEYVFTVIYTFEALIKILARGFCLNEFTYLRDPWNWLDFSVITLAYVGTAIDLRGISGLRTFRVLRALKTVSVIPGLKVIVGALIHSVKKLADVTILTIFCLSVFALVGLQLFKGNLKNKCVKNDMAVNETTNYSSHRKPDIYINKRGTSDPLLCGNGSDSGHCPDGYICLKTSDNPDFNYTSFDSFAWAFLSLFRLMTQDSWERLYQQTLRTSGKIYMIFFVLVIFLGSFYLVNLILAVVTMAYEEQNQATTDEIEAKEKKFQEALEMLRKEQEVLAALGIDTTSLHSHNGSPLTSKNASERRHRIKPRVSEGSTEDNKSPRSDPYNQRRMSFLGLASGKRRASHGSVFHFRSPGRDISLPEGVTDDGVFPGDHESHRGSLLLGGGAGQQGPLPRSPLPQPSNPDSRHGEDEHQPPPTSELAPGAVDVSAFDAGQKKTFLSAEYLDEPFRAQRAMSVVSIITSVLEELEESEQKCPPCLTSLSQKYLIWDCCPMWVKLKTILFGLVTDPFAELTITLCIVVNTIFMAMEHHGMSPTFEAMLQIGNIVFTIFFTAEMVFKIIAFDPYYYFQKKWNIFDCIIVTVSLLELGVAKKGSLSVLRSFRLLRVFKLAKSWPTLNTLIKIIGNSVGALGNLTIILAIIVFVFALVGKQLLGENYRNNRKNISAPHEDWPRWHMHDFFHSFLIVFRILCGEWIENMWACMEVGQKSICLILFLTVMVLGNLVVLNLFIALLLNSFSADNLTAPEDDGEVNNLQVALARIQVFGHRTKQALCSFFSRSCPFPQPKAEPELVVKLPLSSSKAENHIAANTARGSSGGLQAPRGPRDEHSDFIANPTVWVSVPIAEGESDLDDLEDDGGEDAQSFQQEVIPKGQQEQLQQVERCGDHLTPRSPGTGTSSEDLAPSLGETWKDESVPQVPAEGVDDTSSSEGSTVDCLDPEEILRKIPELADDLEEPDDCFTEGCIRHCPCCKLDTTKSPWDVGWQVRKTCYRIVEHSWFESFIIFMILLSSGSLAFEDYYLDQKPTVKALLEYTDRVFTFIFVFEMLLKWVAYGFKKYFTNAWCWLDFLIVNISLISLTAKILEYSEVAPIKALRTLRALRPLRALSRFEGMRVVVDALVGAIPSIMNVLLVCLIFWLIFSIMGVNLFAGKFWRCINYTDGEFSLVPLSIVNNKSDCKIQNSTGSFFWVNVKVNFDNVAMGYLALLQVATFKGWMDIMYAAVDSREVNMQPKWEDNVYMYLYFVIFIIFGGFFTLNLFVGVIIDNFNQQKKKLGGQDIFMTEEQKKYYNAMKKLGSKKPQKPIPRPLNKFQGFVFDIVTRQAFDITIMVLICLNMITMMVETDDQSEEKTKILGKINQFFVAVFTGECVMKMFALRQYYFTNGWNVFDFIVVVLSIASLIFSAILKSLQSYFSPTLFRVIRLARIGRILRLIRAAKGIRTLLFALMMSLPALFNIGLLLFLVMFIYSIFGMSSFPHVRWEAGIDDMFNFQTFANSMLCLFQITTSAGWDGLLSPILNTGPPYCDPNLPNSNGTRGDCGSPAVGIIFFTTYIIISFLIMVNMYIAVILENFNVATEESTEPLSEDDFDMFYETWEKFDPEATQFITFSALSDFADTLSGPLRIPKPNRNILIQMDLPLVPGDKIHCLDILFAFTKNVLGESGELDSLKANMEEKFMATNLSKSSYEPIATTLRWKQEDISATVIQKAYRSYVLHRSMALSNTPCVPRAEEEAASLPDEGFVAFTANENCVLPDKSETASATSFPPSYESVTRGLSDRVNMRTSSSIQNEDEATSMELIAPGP
On the technique in general: In patch-clamp work, channel activity is measured electrically.
By IC50 is commonly meant the point on the concentration scale where inhibition reaches its midpoint. Regarding `C[C@@H]1C(=O)NCCN1C(=O)NC(c1cnc(C(F)(F)F)c(F)c1)c1ccc(F)c(Cl)c1F` (single isomer, unassigned) [Example 34, (2R)—N—((R or S)-(3-chloro-2,4-difluorophenyl)(5-fluoro-6-(trifluoromethyl)pyridin-3-yl)methyl)-2-methyl-3-oxopiperazine-1-carboxamide], the IC50 is 2.12 nM.
On to `C[C@@H]1C(=O)NCCN1C(=O)NC(c1cnc(C(F)(F)F)c(Cl)c1)c1ccc(F)c(Cl)c1F` (single isomer, unassigned) [Example 35, (2R)-N-((R or S)-(3-chloro-2,4-difluorophenyl)(5-chloro-6-(trifluoromethyl)pyridin-3-yl)methyl)-2-methyl-3-oxopiperazine-1-carboxamide], for which the IC50 was determined as 1.13 nM.
On to `O=C1CN(C(=O)NC(c2cnc(C(F)(F)F)c(Cl)c2)c2ccc(F)c(Cl)c2F)CCN1` (single isomer, unassigned) [Example 36, N-((R or S)-(3-chloro-2,4-difluorophenyl)(5-chloro-6-(trifluoro-methyl)pyridin-3-yl)methyl)-3-oxopiperazine-1-carboxamide], for which the IC50 worked out at 6.97 nM.
Consider `O=C1NCCN(C(=O)NC(c2cnc(C(F)(F)F)c(F)c2)c2ccc(F)c(Cl)c2F)C1C1CC1` (single isomer, unassigned) [Example 37A, N-(R or S)-(3-chloro-2,4-difluorophenyl)(5-fluoro-6-(trifluoro-methyl)pyridin-3-yl)methyl)-(R or S)-2-cyclopropyl-3-oxopiperazine-1-carboxamide], for which the IC50 came to 1.85 nM.
Consider `O=C1NCCN(C(=O)NC(c2cnc(C(F)(F)F)c(F)c2)c2ccc(F)c(Cl)c2F)C1C1CC1` (single isomer, unassigned) [Example 37B, N-((R or S)-(3-chloro-2,4-difluorophenyl)(5-fluoro-6-(trifluoro-methyl)pyridin-3-yl)methyl)-(S or R)-2-cyclopropyl-3-oxopiperazine-1-carboxamide], for which the IC50 stood at 188 nM.
`O=C1NCCN(C(=O)NC(c2ccc(C(F)(F)F)nc2)c2ccc(F)c(Cl)c2F)C1C1CC1` (single isomer, unassigned) [Example 38A, N—((R or S)-(3-chloro-2,4-difluorophenyl)(6-(trifluoromethyl)pyridin-3-yl)methyl)-(R)-2-cyclopropyl-3-oxopiperazine-1-carboxamide]: the IC50 came out at 559 nM.
As for `O=C1NCCN(C(=O)NC(c2ccc(C(F)(F)F)nc2)c2ccc(F)c(Cl)c2F)C1C1CC1` (single isomer, unassigned) [Example 38B, N—((R or S)-(3-chloro-2,4-difluorophenyl)(6-(trifluoromethyl)pyridin-3-yl)methyl)-(S)-2-cyclopropyl-3-oxopiperazine-1-carboxamide], the IC50 was found to be 2.22 nM.
As for `CC(C)C1C(=O)NCCN1C(=O)NC(c1ccc(C(F)(F)F)nc1)c1ccc(F)c(Cl)c1F` (single isomer, unassigned) [Example 39A, N-((R or S)-(3-chloro-2,4-difluorophenyl)(6-(trifluoromethyl)pyridin-3-yl)methyl)-(R or S)-2-isopropyl-3-oxo-piperazine-1-carboxamide], the IC50 is 2630 nM.
Then `CC(C)C1C(=O)NCCN1C(=O)NC(c1ccc(C(F)(F)F)nc1)c1ccc(F)c(Cl)c1F` (single isomer, unassigned) [Example 39B, N-((R or S)-(3-chloro-2,4-difluorophenyl)(6-(trifluoromethyl)pyridin-3-yl)methyl)-(S or R)-2-isopropyl-3-oxo-piperazine-1-carboxamide], with 15.2 nM.
On to `CCC1C(=O)NCCN1C(=O)NC(c1ccc(C(F)(F)F)nc1)c1ccc(F)c(Cl)c1F` (single isomer, unassigned) [Example 40A, N-((R or S)-(3-chloro-2,4-difluorophenyl)(6-(trifluoromethyl)pyridin-3-yl)methyl)-(R or S)-2-ethyl-3-oxopiperazine-1-carboxamide], for which the IC50 came to 729 nM.
Take `CCC1C(=O)NCCN1C(=O)NC(c1ccc(C(F)(F)F)nc1)c1ccc(F)c(Cl)c1F` (single isomer, unassigned) [Example 40B, N-((R or S)-(3-chloro-2,4-difluorophenyl)(6-(trifluoromethyl)pyridin-3-yl)methyl)-(S or R)-2-ethyl-3-oxopiperazine-1-carboxamide]: the IC50 turned out to be 10.5 nM.
Then `O=C1NCCN(C(=O)NC(c2cnc(C(F)(F)F)nc2)c2ccc(F)c(Cl)c2F)C1C1CC1` (single isomer, unassigned) [Example 41A, N-((R or S)-(3-chloro-2,4-difluorophenyl)(2-(trifluoromethyl)pyrimidin-5-yl)methyl)-(R or S)-2-cyclopropyl-3-oxopiperazine-1-carboxamide], with 2020 nM; and `O=C1NCCN(C(=O)NC(c2cnc(C(F)(F)F)nc2)c2ccc(F)c(Cl)c2F)C1C1CC1` (single isomer, unassigned) [Example 41B, N-((R or S)-(3-chloro-2,4-difluorophenyl)(2-(trifluoromethyl)pyrimidin-5-yl)methyl)-(S or R)-2-cyclopropyl-3-oxopiperazine-1-carboxamide], with 4.94 nM.
Then `O=C1CN(C(=O)NC(c2ccc(F)c(Cl)c2)c2cccc(C(F)(F)F)n2)CCN1` (single isomer, unassigned) [Example 42, N—((R or S)-(3-chloro-4-fluorophenyl)(6-(trifluoromethyl)pyridin-2-yl)methyl)-3-oxopiperazine-1-carboxamide], with 32.2 nM.
As to `CC1(C)C(=O)NCCN1C(=O)NC(c1ccc(F)c(Cl)c1)c1cccc(C(F)(F)F)n1` (single isomer, unassigned) [Example 43, N-((R or S)-(3-chloro-4-fluorophenyl)(6-(trifluoromethyl)pyridin-2-yl)methyl)-2,2-dimethyl-3-oxopiperazine-1-carboxamide], the IC50 came to 230 nM.
`C[C@@H]1C(=O)NCCN1C(=O)NC(c1ccc(F)c(Cl)c1)c1cccc(C(F)(F)F)n1` (single isomer, unassigned) [Example 44]: the IC50 stood at 8.55 nM.
As for `C[C@H]1C(=O)NCCN1C(=O)NC(c1ccc(F)c(Cl)c1)c1cccc(C(F)(F)F)n1` (single isomer, unassigned) [Example 45, (2S)-N-((R or S)-(3-chloro-4-fluoro-phenyl)(6-(trifluoro-methyl)pyridin-2-yl)methyl)-2-methyl-3-oxopiperazine-1-carboxamide], the IC50 amounted to 1700 nM.
On to `C[C@H]1CN(C(=O)NC(c2ccc(F)c(Cl)c2)c2cccc(C(F)(F)F)n2)CC(=O)N1` (single isomer, unassigned) [Example 46A, (3S)-N-((R or S)-(3-chloro-4-fluoro-phenyl)(6-(trifluoro-methyl)pyridin-2-yl)methyl)-3-methyl-5-oxopiperazine-1-carboxamide], for which the IC50 turned out to be 924 nM.
As for `C[C@@H]1CN(C(=O)NC(c2ccc(F)c(Cl)c2)c2cccc(C(F)(F)F)n2)CC(=O)N1` (single isomer, unassigned) [Example 46B, (3R)-N-((S or R)-(3-chloro-4-fluoro-phenyl)(6-(trifluoro-methyl)pyridin-2-yl)methyl)-3-methyl-5-oxopiperazine-1-carboxamide], the IC50 turned out to be 506 nM.
Take `O=C1CN(C(=O)NC(c2ccc(F)c(Cl)c2)c2cccc(C(F)(F)F)n2)[C@@H](CF)CN1` (single isomer, unassigned) [Example 47A, (2R)-N-((R or S)-(3-chloro-4-fluoro-phenyl)(6-(trifluoro-methyl)pyridin-2-yl)methyl)-2-(fluoromethyl)-5-oxopiperazine-1-carboxamide]: the IC50 came to 2310 nM.
For the molecule `O=C1CN(C(=O)NC(c2ccc(F)c(Cl)c2)c2cccc(C(F)(F)F)n2)[C@H](CF)CN1` (single isomer, unassigned) [Example 47B, (2S)-N-((R or S)-(3-chloro-4-fluoro-phenyl)(6-(trifluoro-methyl)pyridin-2-yl)methyl)-2-(fluoromethyl)-5-oxopiperazine-1-carboxamide], the IC50 was 3760 nM.
For the molecule `C[C@@H]1C(=O)NCCN1C(=O)NC(c1cnc(OCC(F)(F)F)c(F)c1)c1ccc(F)c(C(F)(F)F)n1` (single isomer, unassigned) [Example 48A], the IC50 was 4.78 nM.
With `C[C@@H]1C(=O)NCCN1C(=O)NC(c1cnc(OCC(F)(F)F)c(F)c1)c1ccc(F)c(C(F)(F)F)n1` (single isomer, unassigned) [Example 48B], the IC50 worked out at 209 nM.
Then `C[C@@H]1C(=O)NCCN1C(=O)NC(c1ccc(F)c(F)c1)c1ccc(F)c(C(F)(F)F)n1` (single isomer, unassigned) [Example 49A, (2R)-N-((R or S)-(3,4-difluorophenyl)(5-fluoro-6-(trifluoro-methyl)pyridin-2-yl)methyl)-2-methyl-3-oxopiperazine-1-carboxamide], with 258 nM.
The figure for `C[C@@H]1C(=O)NCCN1C(=O)NC(c1ccc(OCC(F)(F)F)nc1)c1ccc(F)c(C(F)(F)F)n1` (single isomer, unassigned) [Example 50A, (2R)-N-((R or S)-(5-fluoro-6-(trifluoro-methyl)pyridin-2-yl)(6-(2,2,2-trifluoro-ethoxy)pyridin-3-yl)methyl)-2-methyl-3-oxopiperazine-1-carboxamide] is 73.7 nM.
Turning to `C[C@@H]1C(=O)NCCN1C(=O)NC(c1ccc(OCC(F)(F)F)nc1)c1ccc(F)c(C(F)(F)F)n1` (single isomer, unassigned) [Example 50B, (2R)-N-((S or R)-(5-fluoro-6-(trifluoro-methyl)pyridin-2-yl)(6-(2,2,2-trifluoro-ethoxy)pyridin-3-yl)methyl)-2-methyl-3-oxopiperazine-1-carboxamide], the IC50 is 8.55 nM.

Values taken from patent US20240246932A1 (Merck Sharp & Dohme LLC, priority 2021, published 2024).
